The results in this text go back to ChEMBL document CHEMBL3576805, “Discovery of a Dual PRMT5-PRMT7 Inhibitor” (ACS Med Chem Lett, 2015).

The source made the active and inactive calls. The calls are words filed in the database; no cut-off is given here.

Data set [1] concerns the target T1, Protein arginine N-methyltransferase 7 (Homo sapiens, UniProt Q9NVM4).
T1 sequence (Q9NVM4 whole entry): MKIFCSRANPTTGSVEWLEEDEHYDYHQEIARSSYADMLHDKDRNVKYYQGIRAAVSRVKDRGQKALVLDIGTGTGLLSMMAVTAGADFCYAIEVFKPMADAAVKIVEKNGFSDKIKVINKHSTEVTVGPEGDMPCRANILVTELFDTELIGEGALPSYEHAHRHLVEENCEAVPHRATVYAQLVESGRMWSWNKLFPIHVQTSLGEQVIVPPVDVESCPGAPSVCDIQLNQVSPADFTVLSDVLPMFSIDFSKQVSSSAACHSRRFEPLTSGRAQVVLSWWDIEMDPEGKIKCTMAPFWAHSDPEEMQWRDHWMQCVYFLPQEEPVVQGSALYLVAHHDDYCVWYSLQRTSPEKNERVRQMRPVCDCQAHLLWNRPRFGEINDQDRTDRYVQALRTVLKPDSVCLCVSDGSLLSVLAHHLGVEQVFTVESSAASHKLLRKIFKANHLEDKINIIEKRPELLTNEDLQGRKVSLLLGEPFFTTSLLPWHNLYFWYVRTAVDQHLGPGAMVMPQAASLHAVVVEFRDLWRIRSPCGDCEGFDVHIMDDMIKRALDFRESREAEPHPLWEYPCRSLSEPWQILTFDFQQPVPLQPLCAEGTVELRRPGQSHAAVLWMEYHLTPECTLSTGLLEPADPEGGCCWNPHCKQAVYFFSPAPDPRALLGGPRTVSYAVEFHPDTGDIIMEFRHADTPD
Nature of the data set: Inhibition of human full length PRMT7 expressed in Sf9 cells.

Data set [2] deals with T2, PRMT5/MEP50 complex (Homo sapiens, UniProt O14744). Nature of the data set: (§1) Inhibition of human full length PRMT5-MEP50 complex expressed in Sf9 cells.
Data set [3] deals with T3, PRMT5/MEP50 complex (Homo sapiens) (UniProt O14744+Q9BQA1). Nature of the data set: Inhibition of human full length PRMT5-MEP50 complex expressed in Sf9 cells assessed as inhibition of methylation of peptide substrate at 750 uM.
Data set [4] deals with T3, PRMT5/MEP50 complex (Homo sapiens). Nature of the data set: Noncompetitive inhibition of human full length PRMT5-MEP50 complex expressed in Sf9 cells in presence of increasing concentration of histone peptide substrate.
In data set [5] the target is T1, Protein arginine N-methyltransferase 7. Nature of the data set: Binding affinity to human full length PRMT7 by Surface plasmon resonance method.
Data set [6] deals with T2, PRMT5/MEP50 complex. Nature of the data set: Binding affinity to human full length PRMT5-MEP50 complex by Surface plasmon resonance method. Type of data set: protein-complex assay.
In data set [7] the target is DNA (cytosine-5)-methyltransferase 3A (Homo sapiens, UniProt Q9Y6K1). Nature of the data set: Inhibition of human full length DNMT3A expressed in Sf9 cells.
Data set [8] relates to MDA-MB-231. In words: Inhibition of H4R3 methylation in human MDA-MB-231 cells at 50 uM by immunoblotting analysis. Type of data set: functional, cell-based.
The target in data set [9] is T3, PRMT5/MEP50 complex (Homo sapiens). The description is as §1.
Data set [10] addresses Protein arginine N-methyltransferase 1 (Homo sapiens) (UniProt Q99873). Nature of the data set: Inhibition of PRMT1 (unknown origin).
For data set [11], the system named is MDA-MB-231. Nature of the data set: Cytotoxicity against human MDA-MB-231 cells assessed as cell viability by Alamar blue assay. Type of data set: cell-based.
Data set [12] has as its target Protein arginine N-methyltransferase 6 (Homo sapiens) (UniProt Q96LA8). In words: Inhibition of PRMT6 (unknown origin).
The target in data set [13] is Protein arginine N-methyltransferase 5 (Homo sapiens, UniProt O14744). In words: Inhibition of human full length PRMT5 expressed in Sf9 cells.
Data set [14] has as its target DNA (cytosine-5)-methyltransferase 3B (Homo sapiens, UniProt Q9UBC3). In words: Inhibition of human full length DNMT3B expressed in Sf9 cells.
Data set [15] has as its target Protein arginine N-methyltransferase 8 (Homo sapiens) (UniProt Q9NR22). In words: Inhibition of PRMT8 (unknown origin).
The target of data set [16] is Protein arginine N-methyltransferase 3 (Homo sapiens) (UniProt O60678). In words: Inhibition of PRMT3 (unknown origin).
Data set [17] has as its target T2, PRMT5/MEP50 complex. Nature of the data set: Inhibition of human full length PRMT5-MEP50 complex expressed in Sf9 cells using full length histone H4 substrate.
Data set [18] concerns the target T3, PRMT5/MEP50 complex (Homo sapiens). Nature of the data set: Inhibition of human full length PRMT5-MEP50 complex expressed in Sf9 cells using SmD3 peptide AGRGRGKAAILKAQVAARGRGRGMGRGN as a substrate.

T2 sequence (O14744 whole entry): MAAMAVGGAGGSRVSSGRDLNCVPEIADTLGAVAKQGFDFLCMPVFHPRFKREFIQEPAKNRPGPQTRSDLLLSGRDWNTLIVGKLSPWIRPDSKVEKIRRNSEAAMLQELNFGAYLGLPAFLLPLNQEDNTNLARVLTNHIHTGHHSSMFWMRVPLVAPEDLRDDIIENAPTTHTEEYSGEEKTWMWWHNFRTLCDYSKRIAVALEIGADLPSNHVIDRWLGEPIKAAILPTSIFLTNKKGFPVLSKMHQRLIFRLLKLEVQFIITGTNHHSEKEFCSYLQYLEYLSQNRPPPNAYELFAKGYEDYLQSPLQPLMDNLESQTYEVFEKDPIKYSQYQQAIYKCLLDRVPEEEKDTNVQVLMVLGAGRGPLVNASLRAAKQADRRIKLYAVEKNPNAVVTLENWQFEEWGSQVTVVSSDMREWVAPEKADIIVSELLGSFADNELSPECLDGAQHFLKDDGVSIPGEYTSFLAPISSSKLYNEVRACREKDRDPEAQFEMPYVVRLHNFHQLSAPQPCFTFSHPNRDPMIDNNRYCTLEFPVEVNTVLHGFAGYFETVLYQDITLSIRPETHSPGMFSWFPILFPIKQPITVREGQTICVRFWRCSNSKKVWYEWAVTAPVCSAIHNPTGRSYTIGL
T2 sequence (Q9BQA1 whole entry, further chain): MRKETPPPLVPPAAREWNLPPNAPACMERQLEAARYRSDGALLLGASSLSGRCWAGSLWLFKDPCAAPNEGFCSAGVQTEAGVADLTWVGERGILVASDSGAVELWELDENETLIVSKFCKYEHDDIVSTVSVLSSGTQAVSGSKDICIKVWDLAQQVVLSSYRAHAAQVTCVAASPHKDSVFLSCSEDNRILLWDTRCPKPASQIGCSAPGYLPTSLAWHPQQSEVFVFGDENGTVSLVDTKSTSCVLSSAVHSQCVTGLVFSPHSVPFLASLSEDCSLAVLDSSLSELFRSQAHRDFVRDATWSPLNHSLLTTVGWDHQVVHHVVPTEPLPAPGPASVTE
Sequence of DNA (cytosine-5)-methyltransferase 3A (Q9Y6K1 whole entry, looked up): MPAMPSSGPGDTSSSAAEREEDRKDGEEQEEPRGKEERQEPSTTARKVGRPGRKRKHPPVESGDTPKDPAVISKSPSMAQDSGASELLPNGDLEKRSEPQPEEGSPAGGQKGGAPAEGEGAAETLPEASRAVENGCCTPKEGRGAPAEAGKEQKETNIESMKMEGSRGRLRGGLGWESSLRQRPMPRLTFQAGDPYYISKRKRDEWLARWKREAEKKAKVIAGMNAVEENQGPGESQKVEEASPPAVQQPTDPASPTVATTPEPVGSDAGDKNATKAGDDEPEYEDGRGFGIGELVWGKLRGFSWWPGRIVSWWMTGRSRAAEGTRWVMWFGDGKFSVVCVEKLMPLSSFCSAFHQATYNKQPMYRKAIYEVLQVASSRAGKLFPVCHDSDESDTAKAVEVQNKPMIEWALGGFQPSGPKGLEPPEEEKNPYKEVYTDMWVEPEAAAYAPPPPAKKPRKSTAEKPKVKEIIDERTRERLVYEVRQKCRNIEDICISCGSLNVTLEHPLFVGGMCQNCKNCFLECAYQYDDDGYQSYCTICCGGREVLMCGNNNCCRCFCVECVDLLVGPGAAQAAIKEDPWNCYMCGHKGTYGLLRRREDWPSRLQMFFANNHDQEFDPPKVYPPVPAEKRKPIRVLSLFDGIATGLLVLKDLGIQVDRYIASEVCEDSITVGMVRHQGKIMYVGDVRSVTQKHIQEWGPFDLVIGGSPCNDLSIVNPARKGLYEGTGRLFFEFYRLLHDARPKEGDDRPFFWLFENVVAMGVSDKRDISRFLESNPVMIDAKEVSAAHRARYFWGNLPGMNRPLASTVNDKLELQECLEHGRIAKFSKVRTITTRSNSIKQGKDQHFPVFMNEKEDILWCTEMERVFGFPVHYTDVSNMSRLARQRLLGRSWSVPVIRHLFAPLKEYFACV
Sequence of Protein arginine N-methyltransferase 6 (Homo sapiens) (Q96LA8 whole entry, looked up): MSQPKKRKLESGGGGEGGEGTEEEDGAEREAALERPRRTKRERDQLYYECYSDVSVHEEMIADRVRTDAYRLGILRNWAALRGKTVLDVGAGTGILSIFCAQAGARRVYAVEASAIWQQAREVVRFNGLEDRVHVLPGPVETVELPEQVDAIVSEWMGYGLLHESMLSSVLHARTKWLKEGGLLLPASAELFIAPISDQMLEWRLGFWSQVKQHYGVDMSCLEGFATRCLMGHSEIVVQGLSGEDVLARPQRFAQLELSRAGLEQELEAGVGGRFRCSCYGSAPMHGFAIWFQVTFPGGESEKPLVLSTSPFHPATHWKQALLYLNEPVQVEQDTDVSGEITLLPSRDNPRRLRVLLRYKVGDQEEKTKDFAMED
Sequence of Protein arginine N-methyltransferase 1 (Homo sapiens) (Q99873 whole entry, looked up): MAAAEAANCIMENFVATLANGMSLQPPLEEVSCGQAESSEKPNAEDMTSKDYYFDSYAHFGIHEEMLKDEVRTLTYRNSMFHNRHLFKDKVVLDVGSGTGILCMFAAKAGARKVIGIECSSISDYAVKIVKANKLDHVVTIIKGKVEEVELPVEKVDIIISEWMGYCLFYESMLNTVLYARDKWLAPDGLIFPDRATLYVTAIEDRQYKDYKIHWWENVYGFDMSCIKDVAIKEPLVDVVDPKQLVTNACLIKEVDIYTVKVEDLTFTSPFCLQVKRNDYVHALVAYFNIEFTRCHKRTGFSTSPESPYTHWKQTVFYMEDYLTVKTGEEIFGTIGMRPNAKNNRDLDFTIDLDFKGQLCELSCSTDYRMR
Sequence of Protein arginine N-methyltransferase 8 (Homo sapiens) (Q9NR22 2-394 limits assumed): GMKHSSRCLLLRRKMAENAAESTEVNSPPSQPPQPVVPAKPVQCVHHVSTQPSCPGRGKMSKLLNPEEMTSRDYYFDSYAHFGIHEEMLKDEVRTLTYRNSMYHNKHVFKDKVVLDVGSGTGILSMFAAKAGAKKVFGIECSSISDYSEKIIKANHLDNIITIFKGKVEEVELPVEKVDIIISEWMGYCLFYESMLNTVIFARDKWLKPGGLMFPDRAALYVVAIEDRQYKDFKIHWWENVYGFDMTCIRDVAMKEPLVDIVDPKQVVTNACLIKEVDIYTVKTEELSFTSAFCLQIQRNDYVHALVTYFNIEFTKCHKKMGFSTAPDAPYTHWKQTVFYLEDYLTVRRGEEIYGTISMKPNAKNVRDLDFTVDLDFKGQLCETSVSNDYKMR
Sequence of Protein arginine N-methyltransferase 5 (O14744 whole entry): as the sequence (O14744 whole entry) above
Sequence of Protein arginine N-methyltransferase 3 (Homo sapiens) (O60678 2-531 limits assumed): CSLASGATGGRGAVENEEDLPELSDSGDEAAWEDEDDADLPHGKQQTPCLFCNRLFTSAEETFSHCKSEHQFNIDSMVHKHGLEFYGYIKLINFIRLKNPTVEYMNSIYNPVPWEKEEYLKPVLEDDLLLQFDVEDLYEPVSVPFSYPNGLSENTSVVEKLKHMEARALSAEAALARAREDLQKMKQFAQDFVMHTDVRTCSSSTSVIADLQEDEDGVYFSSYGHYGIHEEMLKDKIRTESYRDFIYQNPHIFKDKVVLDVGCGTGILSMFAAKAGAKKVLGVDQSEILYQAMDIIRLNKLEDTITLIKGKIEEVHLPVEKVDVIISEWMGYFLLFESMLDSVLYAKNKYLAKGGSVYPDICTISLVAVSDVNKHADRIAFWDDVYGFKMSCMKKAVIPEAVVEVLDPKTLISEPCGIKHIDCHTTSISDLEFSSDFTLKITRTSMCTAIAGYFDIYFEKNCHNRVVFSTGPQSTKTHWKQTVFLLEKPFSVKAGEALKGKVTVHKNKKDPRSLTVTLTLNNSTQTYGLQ

As for `CC(C)N(CCCNC(=O)Nc1ccc(C(C)(C)C)cc1)C[C@H]1O[C@@H](n2ccc3c(N)ncnc32)[C@H](O)[C@@H]1O`, the results for the IC50 (in data set [1]; at PRMT5/MEP50 complex [2]) were 7.5 µM and > 20 µM, respectively. The inhibition in [3] worked out at 80%.

`CCNC(=O)NCCSC[C@H]1O[C@@H](n2cnc3c(N)ncnc32)[C@H](O)[C@@H]1O`: the inhibition result in data set [4] and in data set [18] was “Active” throughout. The Kd in data set [5] worked out at 37 µM; on PRMT5/MEP50 complex [6] it was 25 µM. In addition, the IC50 in data set [1] was > 50 µM; in data set [7], > 50 µM; on PRMT5/MEP50 complex [2], 5.9 µM; in [13] it was > 50 µM; in data set [14] it was > 50 µM; against PRMT5/MEP50 complex [17], 37 µM. Also, the inhibition entry (in the data set on MDA-MB-231 [8]; in data set [10]; in data set [12]; in data set [15]; in [16]) was “inactive” in each case. Besides, in data set [9], the inhibition result was “Dose-dependent effect”. Also, the Activity entry in the data set on MDA-MB-231 [11] is on record as “Non-toxic”.

Regarding `Nc1ncnc2c1ncn2[C@@H]1O[C@H](CSCC[C@H](N)C(=O)O)[C@@H](O)[C@H]1O` [S-ADENOSYLHOMOCYSTEINE], the IC50 in [7] and in [14] was > 50 µM in each case.
